Assay results from ChEMBL document CHEMBL4414592, “Aryl-fluorosulfate-based Lysine Covalent Pan-Inhibitors of Apoptosis Protein (IAP) Antagonists with Cellular Efficacy” (J Med Chem, 2019).
The source made the active and inactive calls. The calls are words filed in the database; no cut-off is given here.

Columns and labels:
[1] = Stability in aqueous buffer at 100 uM to 2 mM by 1H 1D NMR spectroscopy; assay type: physicochemical
[2] = Solubility in pH 7.5 aqueous buffer at 25 degC by 1H 1D NMR spectroscopy; assay type: physicochemical
SK-MEL-28 [3] = experiment: Induction of apoptosis in human SK-MEL-28 cells assessed as increase in caspase-3/7 activity at […] incubated for 36 hrs by IncuCyteS3 caspase-3/7 fluorescence-based apoptosis assay; assay type: functional, cell-based
A549 [4] = experiment: Induction of apoptosis in human A549 cells assessed as increase in caspase-3/7 activity at […] incubated for 36 hrs by IncuCyteS3 caspase-3/7 fluorescence-based apoptosis assay; assay type: functional, cell-based
SK-MEL-28 [5] = experiment: Induction of apoptosis in human SK-MEL-28 cells assessed as increase in caspase-3/7 activity at […] incubated for 36 hrs in presence of 1 ng/mL TNFlpha by IncuCyteS3 caspase-3/7 fluorescence-based apoptosis assay; assay type: functional, cell-based
SK-MEL-28 [6] = experiment: Cytotoxicity in human SK-MEL-28 cells assessed as reduction in cell viability in presence of 1 ng/mL TNFlpha measured every 3 hrs for 4 days by IncuCyteS3 live-cell analysis system based assay; assay type: functional
A549 [7] = experiment: Induction of apoptosis in human A549 cells assessed as increase in caspase-3/7 activity at […] incubated for 36 hrs in presence of 1 ng/mL TNFlpha by IncuCyteS3 caspase-3/7 fluorescence-based apoptosis assay; assay type: functional, cell-based
A549 [8] = experiment: Cytotoxicity in human A549 cells assessed as reduction in cell viability in presence of 1 ng/mL TNFlpha measured every 3 hrs for 4 days by IncuCyteS3 live-cell analysis system based assay; assay type: functional
[9] = molecular target: Baculoviral IAP repeat-containing protein 2 (Homo sapiens) (UniProt Q13490); experiment: Binding affinity to N-terminal 6x-His-tagged recombinant human cIAP1-BIR3 (258 to 363 residues) expressed in Escherichia coli assessed as increase in […] domain mass at protein-compound ratio of 1:10 incubated for 6 hrs at 25 degC by LC-MS analysis relative to control
[10] = Stability in mouse plasma assessed as half life at 200 uM at 37 degC incubated up to 120 mins by mass spectrometry; assay type: ADME, cell-free; settings: 2 h
[11] = molecular target: T1, E3 ubiquitin-protein ligase XIAP (Homo sapiens, UniProt P98170)
[12] = molecular target: T2, Baculoviral IAP repeat-containing protein 3 (Homo sapiens, UniProt Q13489); experiment: Inhibition of N-terminal 6x-His-tagged recombinant human cIAP2-BIR3 (244 to 349 residues) expressed in Escherichia coli incubated for 2 hrs without 6 hrs pre-incubation with enzyme by biotinylated AVPI peptide based DELFIA
[13] = molecular target: T1, E3 ubiquitin-protein ligase XIAP; remark: listed apart in the source
[14] = molecular target: T1, E3 ubiquitin-protein ligase XIAP; remark: listed apart in the source
[15] = molecular target: T2, Baculoviral IAP repeat-containing protein 3; experiment: Inhibition of N-terminal 6x-His-tagged recombinant human cIAP2-BIR3 (244 to 349 residues) expressed in Escherichia coli incubated for 2 hrs after 6 hrs pre-incubation with enzyme by biotinylated AVPI peptide based DELFIA
[16] = molecular target: T1, E3 ubiquitin-protein ligase XIAP; remark: listed apart in the source

T1 sequence (P98170 whole entry, the tested form may be a part): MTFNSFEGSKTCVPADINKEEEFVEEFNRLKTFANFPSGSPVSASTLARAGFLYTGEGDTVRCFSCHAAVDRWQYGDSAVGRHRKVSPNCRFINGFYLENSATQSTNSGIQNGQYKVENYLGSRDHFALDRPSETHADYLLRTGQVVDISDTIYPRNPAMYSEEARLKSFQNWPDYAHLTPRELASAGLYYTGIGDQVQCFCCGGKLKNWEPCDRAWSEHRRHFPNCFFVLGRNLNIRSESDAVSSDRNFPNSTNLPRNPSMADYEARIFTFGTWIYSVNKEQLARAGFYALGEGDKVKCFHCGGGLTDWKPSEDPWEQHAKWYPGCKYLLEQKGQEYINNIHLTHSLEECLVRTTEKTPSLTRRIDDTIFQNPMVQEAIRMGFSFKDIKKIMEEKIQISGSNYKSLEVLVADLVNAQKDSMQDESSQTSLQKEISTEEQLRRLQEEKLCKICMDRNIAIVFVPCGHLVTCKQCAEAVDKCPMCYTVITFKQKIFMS
T2 sequence (Q13489 whole entry, the tested form may be a part): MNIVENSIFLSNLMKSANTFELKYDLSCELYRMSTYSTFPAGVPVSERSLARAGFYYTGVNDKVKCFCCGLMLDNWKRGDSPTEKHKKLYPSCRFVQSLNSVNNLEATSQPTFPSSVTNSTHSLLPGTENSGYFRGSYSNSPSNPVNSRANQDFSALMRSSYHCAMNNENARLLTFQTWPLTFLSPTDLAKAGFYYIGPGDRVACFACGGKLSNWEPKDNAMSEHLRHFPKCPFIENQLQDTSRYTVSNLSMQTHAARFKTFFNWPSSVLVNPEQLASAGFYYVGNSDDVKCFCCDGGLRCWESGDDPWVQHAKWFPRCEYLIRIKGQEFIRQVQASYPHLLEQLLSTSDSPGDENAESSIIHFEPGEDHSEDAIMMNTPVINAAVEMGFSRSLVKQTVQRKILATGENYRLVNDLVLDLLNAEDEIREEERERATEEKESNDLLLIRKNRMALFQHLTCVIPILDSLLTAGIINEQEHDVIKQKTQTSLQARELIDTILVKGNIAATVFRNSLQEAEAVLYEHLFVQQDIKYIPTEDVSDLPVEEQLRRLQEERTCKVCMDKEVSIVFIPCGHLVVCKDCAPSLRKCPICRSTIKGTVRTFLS
Baculoviral IAP repeat-containing protein 2 (Homo sapiens), sequence (Q13490 whole entry, the tested form may be a part): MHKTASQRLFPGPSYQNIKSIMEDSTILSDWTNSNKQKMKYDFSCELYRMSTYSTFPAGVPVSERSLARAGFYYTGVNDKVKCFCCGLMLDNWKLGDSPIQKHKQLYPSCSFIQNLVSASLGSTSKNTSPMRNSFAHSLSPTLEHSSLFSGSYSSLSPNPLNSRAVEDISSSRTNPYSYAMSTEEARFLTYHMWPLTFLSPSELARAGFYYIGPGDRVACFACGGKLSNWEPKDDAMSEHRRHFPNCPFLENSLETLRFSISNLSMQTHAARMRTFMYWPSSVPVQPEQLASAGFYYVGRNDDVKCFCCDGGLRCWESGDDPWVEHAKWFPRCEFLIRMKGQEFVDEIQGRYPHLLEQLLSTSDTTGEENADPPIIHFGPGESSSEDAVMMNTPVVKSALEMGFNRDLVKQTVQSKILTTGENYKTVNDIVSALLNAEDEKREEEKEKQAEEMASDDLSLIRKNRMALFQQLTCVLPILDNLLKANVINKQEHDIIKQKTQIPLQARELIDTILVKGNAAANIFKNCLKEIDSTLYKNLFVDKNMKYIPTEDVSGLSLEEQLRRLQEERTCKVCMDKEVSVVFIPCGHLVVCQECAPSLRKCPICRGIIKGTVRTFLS

Row | Structure (SMILES) | Stability [1] | solubility [2] | Activity (SK-MEL-28 [3]) | Activity (A549 [4]) | Activity (SK-MEL-28 [5]) | Activity (SK-MEL-28 [6]) | Activity (A549 [7]) | Activity (A549 [8]) | Activity [9] | Stability [10] | ΔTm [11] [°C] | IC50 [12] [nM] | IC50 [13] [nM] | ΔTm [14] [°C] | IC50 [15] [nM] | IC50 [16] [nM]
1 | CN[C@@H](C)C(=O)N[C@H](C(=O)N1CCC[C@H]1C(=O)N[C@@H]1CCc2c(OS(=O)(=O)F)cccc21)C1CCCCC1 | Stable | <= 2 mM | inactive | inactive | Dose-dependent effect | Dose-dependent effect | Dose-dependent effect | Dose-dependent effect | – | – | – | – | – | – | – | –
2 | CN[C@@H](C)C(=O)N[C@@H](Cc1ccc(OS(=O)(=O)F)cc1)C(=O)N1CCC[C@H]1C(=O)N[C@@H]1CCc2c(F)cccc21 | – | – | inactive | inactive | Dose-dependent effect | Dose-dependent effect | Dose-dependent effect | Dose-dependent effect | inactive | – | – | – | – | – | – | –
3 | CN[C@@H](C)C(=O)NC(Cc1cc(C)c(C(F)(F)F)cc1F)C(=O)N1CCC[C@H]1C(=O)N[C@@H]1CCc2c(OS(=O)(=O)F)cccc21 (mixture of isomers) | – | <= 1 mM | inactive | inactive | Dose-dependent effect | Dose-dependent effect | Dose-dependent effect | Dose-dependent effect | – | Stable | – | – | – | – | – | –
4 | CN[C@@H](C)C(=O)N[C@H](C(=O)N1CCC[C@H]1c1nc(C(=O)c2ccc(F)cc2)cs1)C1CCCCC1 [LCL-161] | – | – | inactive | inactive | Dose-dependent effect | Dose-dependent effect | Dose-dependent effect | Dose-dependent effect | – | Stable | – | – | – | – | – | –
5 | CN[C@@H](C)C(=O)N[C@H]1CN(C(=O)CC(C)C)CC[C@H]2CC[C@@H](C(=O)NC(c3ccccc3)c3ccccc3)N2C1=O [XEVINAPANT] | – | – | inactive | inactive | Dose-dependent effect | Dose-dependent effect | Dose-dependent effect | Dose-dependent effect | – | Stable | 17 | 44 | 47.8 | 19 | 133 | 42
